Where no end group is shown, it is not given here.
Experiments:
p53 = p53 protein expression level, immunofluorescence staining quantified with ImageJ; format: cell-based, human; details: MG63 cells; alginate matrix with cyclic GFR-binding peptide + SiRNA Integrin alpha 3 + SiRNA Integrin beta 1; 48 h; 400 ng/mL GFR-binding compound
Experimental: (§1) The cells were first fixed for 20 min with 4% paraformaldehyde/PBS at 4° C. After fixation, the cells were permeabilized in PBS containing 1% Triton X-100 for 15 min. Protein immunofluorescent visualization was performed by first treating the cells with 1% (v/v) specific monoclonal antibodies for 1 hour at 37° C. Then the samples were incubated with Alexa fluor® 568 or 647 (F(ab′)2 fragment of IgG(H+L)) during 30 min at room temperature. The cell nuclei were counterstained in 20 ng/mL DAPI for 10 min at room temperature.
(§2) For this type of quantification the freeware image analysis ImageJ® software was used. The raw image was first converted to an 8-bit file, and then the unsharp mask feature was used (settings 1:0.2) to remove the image background (rolling ball radius 10). After smoothing, the resulting image, which appears similar to the original photomicrograph but with minimal background, was then converted to a binary image by setting a threshold. Threshold values were determined empirically by selecting a setting, which gave the most accurate binary image for a subset of randomly selected photomicrographs. The cell area was determined by manual delineation on raw fluorescent images. Total contact area and mean contact area per cell were calculated by “analyse particules” in ImageJ®. A minimum of 50 cells per condition were analyzed.
(§3) Neoplastic cells (in this example osteosarcoma cells) were cultured in the presence of pharmaceutical associations of the invention. A rapid (24 hours) decrease of the tumor markers was observed (FIG. 5). The adhesion checkpoint then activates the tumor suppressor proteins p53 and pRB.
(§4) The alginate used in these experiments was the Ultra Pure Sodium alginate powder PRONOVA UP MVG from Novamatrix (FMC Biopolymers, cat. no. 4200106). To a 1% MillQ water (1 g per 100 mL) alginate solution were added the cyclic GFR-binding peptide and the SiRNA molecules. The resulting mixture was then added to the cell cultures for 48 h.

pRB = pRB phosphorylation level, immunofluorescence staining quantified with ImageJ; format: cell-based, human
Experimental: as §1, §2, §3, §4

[1] = MG63 cells, alginate matrix with cyclic GFR-binding peptide + SiRNA Integrin alpha 3 + SiRNA Integrin beta 1, 48 h, 400 ng/mL GFR-binding compound
[2] = human osteosarcoma cells, MG63, pharmaceutical association containing the GFR-binding compound (Table 6)

| Sequence | P53 (%) (p53) | pRB (%) (pRB; [1]) | pRB (%) (pRB; [2]) |
| --- | --- | --- | --- |
| GGGGGGGGGDENEKVVKIPKASSTQVRLRPVQIRKIDAANNVV (also: cyclic (mode not given here)) [SEQ ID NO: 4724] | 47 | 7 |  |
| GGGGGGGGGDDSSNVISTPPTSSVSQKMKPLSILYVDDSSNVI (also: cyclic (mode not given here)) [SEQ ID NO: 4735] | 51 | 8 |  |
| SSVKSQPSRVHHKPLSMLYV (Non-cyclic GFR-binding peptide) [SEQ ID NO: 62] |  |  | 18 |
| GGGGGGGGGDENEKVVRVPSTSSTQVDLNAISVLYFDENEKVV (also: cyclic (mode not given here)) [SEQ ID NO: 4729] | 38 | 13 |  |
| GGGGGGGGGDENEKVVNDEGLESVPEDLSSLSVLFFDENEKVV (also: cyclic (mode not given here)) [SEQ ID NO: 4717] | 42 | 12 |  |
| AAAAAAAAADENEKVVAASKASSVPQEEEPLPMVYYDAANNVV (also: cyclic) [SEQ ID NO: 4721] | 39 | 12 |  |
| NDEGLESVPTEESAISMLYL (Non-cyclic GFR-binding peptide) [SEQ ID NO: 56] |  |  | 18 |
| AAAAAAAAADENEKVVRVPSTSSVPAEESNITVQIMDDSSNVI (also: cyclic (mode not given here)) [SEQ ID NO: 4738] | 55 | 16 |  |
| AAAAAAAAADAANNVVKIPKASSTQVRLRSVKTAKVDAANNVV (also: cyclic) [SEQ ID NO: 4740] | 52 | 15 |  |
| SIPKASSTPTELSPINMLYF (Non-cyclic GFR-binding peptide) [SEQ ID NO: 54] |  |  | 23 |
| GGGGGGGGGDDSSNVIGIPEPSSAPTRLEPISMLYLDENEKVV (also: cyclic (mode not given here)) [SEQ ID NO: 4731] | 40 | 8 |  |
| GGGGGGGGGFDNDENVVSTPPTSSTPTKMSNITTQIMFDNDENVV (also: cyclic (mode not given here)) [SEQ ID NO: 4737] | 53 | 18 |  |
| GGGGGGGGGFDNDENVVRVPSTSSVPEKMEPLTMLYYFDNDENVV (also: cyclic (mode not given here)) [SEQ ID NO: 4736] | 47 | 9 |  |
| ASASPSSVSQDLSSLSILFF (Non-cyclic GFR-binding peptide) [SEQ ID NO: 58] |  |  | 15 |
| GGGGGGGGGDDSSNVIRVPSTSSVPTGQSAISTLYLDDSSNVI (also: cyclic (mode not given here)) [SEQ ID NO: 4718] | 40 | 10 |  |
| GGGGGGGGGDENEKVVKIPKASSVSQQLEPISTLYLDENEKVV (also: cyclic (mode not given here)) [SEQ ID NO: 4732] | 42 | 9 |  |
| GGGGGGGGGDENEKVVGIPEPSSAPVDLKPLSTLYVDENEKVV (also: cyclic (mode not given here)) [SEQ ID NO: 4720] | 38 | 9 |  |

| Sequence | P53 (%) (p53) | pRB (%) (pRB; [1]) | pRB (%) (pRB; [2]) |
| --- | --- | --- | --- |
| AAAAAAAAADAANNVVGIPEPSSVSQELSATSMLYYDAANNVV (also: cyclic) [SEQ ID NO: 4730] | 37 | 10 |  |
| AAAAAAAAADENEKVVKIPKASSVPTKMKPLSVLYVDDSSNVI (also: cyclic (mode not given here)) [SEQ ID NO: 4734] | 50 | 12 |  |
| AAAAAAAAADENEKVVAASKASSSRVELRSVKIAKVDDSSNVI (also: cyclic) [SEQ ID NO: 4723] | 50 | 8 |  |
| GGGGGGGGGDDSSNVIKIPKASSVPTGGSNITVQIMDDSSNVI (also: cyclic (mode not given here)) [SEQ ID NO: 4722] | 51 | 17 |  |
| NDEGLESVPTEERSVKVAKV (Non-cyclic GFR-binding peptide) [SEQ ID NO: 63] |  |  | 22 |
| VVPKPSSAPTQLEPISILYL (Non-cyclic GFR-binding peptide) [SEQ ID NO: 59] |  |  | 21 |
| GGGGGGGGGDDSSNVISTPPTSSSRVQLSAISMLYLDDSSNVI (also: cyclic (mode not given here)) [SEQ ID NO: 4725] | 29 | 6 |  |
| GGGGGGGGGFDNDENVVGIPEPSSAPVDMRPVQIRKIFDNDENVV (also: cyclic (mode not given here)) [SEQ ID NO: 4742] | 46 | 14 |  |
| GGGGGGGGGDDSSNVIAASKASSTPTDLNAISTLYFDDSSNVI (also: cyclic (mode not given here)) [SEQ ID NO: 4728] | 33 | 15 |  |
| SSVKSQPSRVHHSPISILFI (Non-cyclic GFR-binding peptide) [SEQ ID NO: 57] |  |  | 17 |
| GGGGGGGGGDENEKVVSTPPTSSVPTEVSPINTLYFDENEKVV (also: cyclic (mode not given here)) [SEQ ID NO: 4733] | 38 | 17 |  |
| AAAAAAAAADENEKVVAASKASSVPEKMRPVQTRKIDDSSNVI (also: cyclic) [SEQ ID NO: 4741] | 49 | 15 |  |
| GGGGGGGGGDENEKVVRVPSTSSTQVKMSAISMLYLDENEKVV (also: cyclic (mode not given here)) [SEQ ID NO: 4726] | 32 | 10 |  |
| GGGGGGGGGDDSSNVIRVPSTSSAPTKMNAISMLYFDENEKVV (also: cyclic (mode not given here)) [SEQ ID NO: 4719] | 44 | 15 |  |
| AAAAAAAAADAANNVVKIPKASSSRVRLSSLSTLFFDAANNVV (also: cyclic) [SEQ ID NO: 4727] | 32 | 11 |  |
| GGGGGGGGGFDNDENVVAASKASSVPQRLRSVKVAKVFDNDENVV (also: cyclic (mode not given here)) [SEQ ID NO: 4739] | 51 | 14 |  |
